According to ChEMBL document CHEMBL1127241, “Taxol photoaffinity labels 2. Synthesis and biological evaluation of N-(4-azidobenzoyl)-N-debenzoyltaxol, N-(4-azido-2,3,5,6-tetrafluorobenzoyl)-N-debenzoyltaxol, and 7-(4-azido-2,3,5,6-tetrafluorobenzoyl)taxol” (1994):

Columns and labels:
B16 = test: Concentration which produces 50% inhibition of proliferation of B16 melanoma cells after 40 hr incubation expressed as ED50 ratio relative to taxol; type: functional, Mus musculus
[1] = biological target: Tubulin alpha chain (Sus scrofa) (UniProt P02550); test: Concentration which causes polymerization of 50% of the tubulin present in 15 min at 37 degree Celsius (stimulation of microtubule assembly) expressed as ED50 ratio relative to taxol; type: functional
Tubulin alpha chain (Sus scrofa), sequence (P02550 whole entry, looked up): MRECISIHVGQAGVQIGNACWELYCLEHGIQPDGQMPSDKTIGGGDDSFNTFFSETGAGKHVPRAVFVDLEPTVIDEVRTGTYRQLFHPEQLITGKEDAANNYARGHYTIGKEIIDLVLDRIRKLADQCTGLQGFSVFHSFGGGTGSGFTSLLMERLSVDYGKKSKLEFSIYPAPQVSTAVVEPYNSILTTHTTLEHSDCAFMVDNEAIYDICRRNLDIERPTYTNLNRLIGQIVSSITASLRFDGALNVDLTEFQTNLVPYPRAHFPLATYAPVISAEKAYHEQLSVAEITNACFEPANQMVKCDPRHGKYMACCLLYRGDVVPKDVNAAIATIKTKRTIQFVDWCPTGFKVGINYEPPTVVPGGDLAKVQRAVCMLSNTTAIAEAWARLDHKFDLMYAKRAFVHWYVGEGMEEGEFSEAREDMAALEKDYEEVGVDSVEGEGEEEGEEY

ED50 ratio [1]	Compound	ED50 ratio (B16)
21.4	CC(=O)O[C@H]1C(=O)[C@]2(C)[C@@H](OC(=O)c3ccc(N=[N+]=[N-])cc3)C[C@H]3OC[C@@]3(OC(C)=O)[C@H]2[C@H](OC(=O)c2ccccc2)[C@]2(O)C[C@H](OC(=O)[C@H](O)[C@@H](NC(=O)c3ccccc3)c3ccccc3)C(C)=C1C2(C)C	30
2	CC(=O)O[C@H]1C(=O)[C@@]2(C)[C@H]([C@H](OC(=O)c3ccccc3)[C@]3(O)C[C@H](OC(=O)[C@H](O)[C@@H](NC(=O)c4ccc(N=[N+]=[N-])cc4)c4ccccc4)C(C)=C1C3(C)C)[C@]1(OC(C)=O)CO[C@@H]1C[C@@H]2O	4.6
4.6	CC(=O)O[C@H]1C(=O)[C@@]2(C)[C@H]([C@H](OC(=O)c3ccccc3)[C@]3(O)C[C@H](OC(=O)[C@H](O)[C@@H](NC(=O)c4c(F)c(F)c(N=[N+]=[N-])c(F)c4F)c4ccccc4)C(C)=C1C3(C)C)[C@]1(OC(C)=O)CO[C@@H]1C[C@@H]2O	14.8
> 22.4	CC(=O)O[C@H]1C(=O)[C@]2(C)[C@@H](OC(=O)c3c(F)c(F)c(N=[N+]=[N-])c(F)c3F)C[C@H]3OC[C@@]3(OC(C)=O)[C@H]2[C@H](OC(=O)c2ccccc2)[C@]2(O)C[C@H](OC(=O)[C@H](O)[C@@H](NC(=O)c3ccccc3)c3ccccc3)C(C)=C1C2(C)C	–
